Data as given in patent USRE38551E1, “Anticonvulsant enantiomeric amino acid derivatives” (priority 1996, dated 2004).

Legend:
liver microsomal system = assay: 7-day liver microsomal studies; format: in vivo, rats; conditions: rat, in vivo, 48 mg/kg
Method: Two of the three groups of animals subjected to the hexobarbital sleep time test (chronically treated and vehicle control groups) were continued on their respective original treatment regimen for two days (days 6 and 7) and 24 hours later (day 8) subjected to liver microsomal studies. The rats were decapitated and the livers perfused with 0.9% sodium chloride solution. The livers were removed, weighed, and homogenized in 0.25M sucrose. Microsomes were prepared and their drug metabolizing capabilities (microsomal protein yield; cytochrome P-450 concentration; p-nitroanisole O-demethylase and NADPH cytochrome c reductase activities; norbenzphetamine MI complex formation; and glucuronyl transferase, erythromycin demethylase, and ethylmorphine demethylase activities) measured (Arch. Biochem. Biophys. 143: 318-329, 1971).

motor impairment = motor impairment (ataxia, gait, stance) observation, rats (po); format: in vivo
Text: Compounds were screened for anticonvulsant activity in both male albino Carthworth Farms No. 1 mice (ip route) and male albino Sprague Dawley rats [oral (po) route]. Activity was established using the electrical (maximal electroshock or MES) test. In the MES test, a drop of electrolyte solution with anesthetic (0.5% butacaine hemisulfate in 0.9% sodium chloride) was used in the eyes of the animals prior to positioning the corneal electrodes and delivery of current. A 60 cycle alternating current was administered for 0.2 sec. in both species, 50 mA in mice and 150 mA in rats. Protection endpoints were defined as the abolition of the hind limb tonic extensor component of the induced seizure. In mice, effects of compounds on forced spontaneous motor activity were determined using the rotorod test. […] Normally under these conditions, mice maintain their balance almost indefinitely. In rats, motor impairment is assessed by observing for overt evidence of ataxia, abnormal gait and stance, and/or loss of placing response and muscle tone. In the mouse identification screening study all compounds were given at three dose levels (30, 100, 300 mg/kg) and two time periods (0.5 hours, 4 hours). Typically, in the MES seizures test one animal was tested at 30 mg/kg and 300 mg/kg, and three animals at 100 mg/kg. In the rotored toxicity test four animals were tested at 30 mg/kg, and 300 mg/kg, and eight animals at 100 mg/kg.
The quantitative determination of the median effective (ED50) and toxic doses (TD50) was conducted at previously calculated times of peak effect. Groups of at least eight animals were tested using different doses of test compound until at least two points wee determined between 100 and 0% protection and minimal motor impairment. The dose of candidate substance required to produce the defined end-point in 50% of the animals in each test and the 95% confidence interval was calculated.

liver = conditions: rats, p.o., short term

Structure (SMILES) | NADPH cytochrome c reductase activity (liver microsomal system; Sprague Dawley, 7 days) [nmol/mg/min] | p-nitroanisole O-demethylase activity (liver microsomal system; Sprague Dawley, 7 days) [nmol/mg/min] | liver microsomal enzyme activity (liver microsomal system) | RAT ED50 Neurotox (motor impairment; oral (Table 6)) [mg/kg] | tox, TD50 (motor impairment; rat, po, at time of peak effect) | liver necrosis (liver; 3.9 or 100 mg/kg daily) | liability for serious drug-drug interactions and liver toxicity (battery of liver enzyme studies) (liver)
CC(=O)NC(C)C(=O)NCc1ccccc1 (racemic) [compound 1, N-Acetyl-D,L-alanine-N′-benzylamide] | 105.0 ± 4.1 | 0.62 ± 0.07 | unaltered | – | – | – | –
COC[C@@H](NC(C)=O)C(=O)NCc1ccccc1 [Ex. 1, 2, (R)-N-Benzyl-2-Acetamide-3-methoxypropionamide] | – | – | – | >500 | >500 [0.5] mg/kg | no evidence of causing liver necrosis | relatively low
